This note sets out measurements from ChEMBL document CHEMBL1135357, “Anti-MRSA activity of alkyl gallates” (2002).

Common to all, as to type: functional
In test [1] the test system is Staphylococcus aureus. The test can be described thus: Compound was tested for antibacterial activity against MRSA ATCC 33591, expressed as minimum bactericidal concentration (MBC).
Test [2] relates to Staphylococcus aureus. The test is described as follows: Compound was tested for antibacterial activity against MRSA ATCC 33591, expressed as minimum inhibitory concentration (MIC).
The subject of a further test is Bacillus thuringiensis. The test can be described thus: Compound was tested for antibacterial activity against Bacillus thuringiensis.
Test [3] has as its system Staphylococcus aureus. The test can be described thus: Compound was tested for antibacterial activity against Staphylococcus aureus (MRSA).
The test system of another test is Streptococcus mutans. The test is described as follows: Compound was tested for antibacterial activity against Streptococcus mutans.
The subject of another test is Bacillus subtilis. The test can be described thus: Compound was tested for antibacterial activity against Bacillus subtilis.
For the next test, the system named is Micrococcus luteus. The test can be described thus: Compound was tested for antibacterial activity against Micrococcus luteus.
In test [4] the test system is Staphylococcus aureus. The test can be described thus: Compound was tested for antibacterial activity against MRSA ATCC 33591, expressed as aminimum inhibitory concentration (MIC).
The next test concerns Cutibacterium acnes. The test can be described thus: Compound was tested for antibacterial activity against Propionibacterium acnes.
Test [5] concerns Staphylococcus aureus. The test is described as follows: Compound was tested for antibacterial activity against Staphylococcus aureus.
The subject of test [6] is Corynebacterium ammoniagenes. The test can be described thus: Compound was tested for antibacterial activity against Brevibacterium ammoniagenes.

The structures appear in SMILES notation. In brackets after ≈: the same amount, converted by molar mass.

The term MBC denotes the lowest tested concentration that kills the bacteria rather than only halting them. High values mean less potent killing, low ones more potent killing. A word on the MIC: it is the lowest concentration that inhibits growth of the organism. With `CCCCCCCCCCCOC(=O)c1cccc(O)c1`, the MBC against Staphylococcus aureus [1] came out at 50 µg/mL (≈ 171 µM). In the test with Staphylococcus aureus [2], this compound gave an MIC of 50 µg/mL (≈ 171 µM).

As for `CCCCCCCCCCCOC(=O)c1cc(O)cc(O)c1`, the MBC against Staphylococcus aureus [1] stood at 50 µg/mL (≈ 162 µM). This compound also gave an MIC in the test on Staphylococcus aureus [2] of 50 µg/mL (≈ 162 µM).

In the test with Staphylococcus aureus [1], `CCCCCCCCCCOC(=O)c1cc(O)c(O)c(O)c1` [DECYL GALLATE] had an MBC of 25 µg/mL (≈ 80.5 µM). The compound further gave an MIC in the test with Staphylococcus aureus [2] of 12.5 µg/mL (≈ 40.3 µM).

Turning to `CCCCCCCCCCCCOC(=O)c1cc(O)c(O)c(O)c1` [DODECYL GALLATE], the MIC with Bacillus thuringiensis turned out to be 50 µg/mL (≈ 148 µM); against Staphylococcus aureus [3], 12.5 µg/mL (≈ 36.9 µM); with Streptococcus mutans it was 100 µg/mL (≈ 295 µM); in the test on Bacillus subtilis it was 25 µg/mL (≈ 73.9 µM); against Micrococcus luteus, 12.5 µg/mL (≈ 36.9 µM); against Staphylococcus aureus [4], 12.5 µg/mL (≈ 36.9 µM). For the same compound, the figures for the MIC (against Cutibacterium acnes; against Staphylococcus aureus [5]; in test [6]) were 6.25 µg/mL (≈ 18.5 µM), 12.5 µg/mL (≈ 36.9 µM) and 25 µg/mL (≈ 73.9 µM), respectively. Further, the MBC with Staphylococcus aureus [3] amounted to 25 µg/mL (≈ 73.9 µM); against Streptococcus mutans, 100 µg/mL (≈ 295 µM); with Bacillus subtilis, 25 µg/mL (≈ 73.9 µM); in the test on Micrococcus luteus it was 25 µg/mL (≈ 73.9 µM); against Staphylococcus aureus [1], 25 µg/mL (≈ 73.9 µM); against Cutibacterium acnes, 6.25 µg/mL (≈ 18.5 µM). Moreover, the MBC (against Staphylococcus aureus [5]; in test [6]) was 25 µg/mL (≈ 73.9 µM) in each case.

Regarding `CCCCCCCOC(=O)c1cc(O)c(O)c(O)c1` [HEPTYL GALLATE], in the test with Staphylococcus aureus [1], the MBC turned out to be 100 µg/mL (≈ 373 µM). The compound further came in with an MIC with Staphylococcus aureus [2] of 25 µg/mL (≈ 93.2 µM).

Regarding `CCCCCCOC(=O)c1cc(O)c(O)c(O)c1` [HEXYL GALLATE], the MBC with Staphylococcus aureus [1] turned out to be 200 µg/mL (≈ 787 µM). The MIC against Staphylococcus aureus [2] amounted to 50 µg/mL (≈ 197 µM).

The compound `COc1cccc(OC)c1C(=O)N[C@@H]1C(=O)N2[C@@H]1SC(C)(C)[C@@H]2C(=O)O` [METHICILLIN] showed an MBC with Staphylococcus aureus [1] of more than 800 µg/mL. Besides, inhibition of growth against Staphylococcus aureus [2] (MIC) required 800 µg/mL (≈ 2100 µM).

`CCCCCCCCCOC(=O)c1cc(O)c(O)c(O)c1` [NONYL GALLATE] returned an MBC in the test with Staphylococcus aureus [1] of 50 µg/mL (≈ 169 µM). In the test on Staphylococcus aureus [2], this compound had an MIC of 25 µg/mL (≈ 84.4 µM).

Turning to `CCCCCCCCOC(=O)c1cc(O)c(O)c(O)c1` [OCTYL_GALLATE], the MBC in the test with Staphylococcus aureus [1] is 50 µg/mL (≈ 177 µM). The compound also showed an MIC against Staphylococcus aureus [2] of 25 µg/mL (≈ 88.5 µM).

With `CCCOC(=O)c1cc(O)c(O)c(O)c1` [PROPYL GALLATE], the MBC against Staphylococcus aureus [1] stood at 3200 µg/mL (≈ 15100 µM). For the same compound, it took 1600 µg/mL (≈ 7540 µM) to inhibit growth in the test with Staphylococcus aureus [2] (MIC).

In the test on Staphylococcus aureus [1], `CCCCCCCCCCCOC(=O)c1cc(O)c(O)c(O)c1` [UNDECYL GALLATE] had an MBC of 25 µg/mL (≈ 77.1 µM). Also, in the test on Staphylococcus aureus [2], the MIC stood at 12.5 µg/mL (≈ 38.5 µM).
